Reference: patent publication US7855310B2, “AH receptor antagonists” (SYMRISE GmbH & Co. KG, priority 2006, dated 2010)

What was measured:
[1] = Light stability test (solar simulator, HPLC quantification); format: physicochemical; conditions: wt. % based on sum E isomer + Z isomer; for Degradation after 2 h: solar simulator 40 W/m^2, 2 h; for Degradation after 4 h: solar simulator 40 W/m^2, 4 h
Procedure: 20 μl of a 1-3 wt. % solution of each of the test compounds of formula (I) in a low-volatility solvent (e.g. isopropyl myristate, miglyol or glycerol) are distributed uniformly over microscope slides using a pipette. These loaded slides are then irradiated in a solar simulator with an intensity of 40 W/m^2 (for 2 h or 4 h in each case).
When the irradiation has ended, the slides are each separately laid in a glass dish containing an organic solvent (methanol, isopropanol, etc.) and the organic substances present thereon are detached in an ultrasonic bath. The resulting solutions are each transferred to a 10 ml or 25 ml volumetric flask and made up to the calibration mark with solvent. Non-irradiated slides are treated likewise as references.
The samples (contents of the respective volumetric flasks) are evaluated via HPLC quantification. These values are compared with the non-irradiated references and the degradation rate during irradiation is reported in [wt. %] per unit time, based on the sum [E isomer+Z isomer].

AhR = biological target: T1, AhR (Homo sapiens, UniProt P35869); test: Fluorescence microscopy of GFP-coupled AhR translocation in HaCaT cells transfected with pEGFP-AhR; format: cell-based; conditions: in the presence and absence of UVB light
T1 construct: endogenous in cells; host or cells: HaCaT keratinocytes
T1 sequence (P35869 11-848): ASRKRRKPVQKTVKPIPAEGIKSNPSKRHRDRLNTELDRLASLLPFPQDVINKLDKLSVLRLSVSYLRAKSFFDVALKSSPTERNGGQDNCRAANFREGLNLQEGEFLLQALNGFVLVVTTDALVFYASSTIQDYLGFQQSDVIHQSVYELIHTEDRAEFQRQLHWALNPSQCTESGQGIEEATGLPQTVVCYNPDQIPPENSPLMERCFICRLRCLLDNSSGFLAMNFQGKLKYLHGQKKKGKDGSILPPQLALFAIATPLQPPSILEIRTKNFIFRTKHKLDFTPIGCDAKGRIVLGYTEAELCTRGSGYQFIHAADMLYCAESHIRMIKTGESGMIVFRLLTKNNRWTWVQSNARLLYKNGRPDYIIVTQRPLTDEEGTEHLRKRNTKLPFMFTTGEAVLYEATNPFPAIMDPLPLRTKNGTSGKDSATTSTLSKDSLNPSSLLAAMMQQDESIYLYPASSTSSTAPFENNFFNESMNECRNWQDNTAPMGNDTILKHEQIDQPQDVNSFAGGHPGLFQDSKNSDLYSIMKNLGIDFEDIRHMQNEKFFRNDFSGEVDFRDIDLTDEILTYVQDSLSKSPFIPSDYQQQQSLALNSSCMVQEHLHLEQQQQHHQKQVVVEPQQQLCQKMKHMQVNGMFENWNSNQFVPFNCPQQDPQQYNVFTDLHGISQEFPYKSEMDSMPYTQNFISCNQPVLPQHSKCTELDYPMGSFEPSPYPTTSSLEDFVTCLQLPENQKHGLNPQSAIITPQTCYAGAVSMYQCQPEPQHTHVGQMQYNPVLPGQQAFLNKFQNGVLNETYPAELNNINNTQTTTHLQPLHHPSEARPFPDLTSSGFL
Text: HaCaT keratinocytes were cultivated in DMEM containing 10% of foetal calf serum. The cells were irradiated with UVB in PBS (phosphate buffered saline). For irradiation with UVB we used a TL20W/12RS lamp, which contains four parallel tubes (Philips, Eindhoven, The Netherlands) and emits the bulk of its energy in the UVB range (290-320 nm). The emission peak of the lamp is at 310 nm. Control cells were subjected to the same treatment but were not irradiated. To inhibit the AhR, the cells were treated with the test substances 1 h prior to irradiation.
HaCaT cells were plated out on compartmentalized microscope slides at a cell density of 5×10^4 cells/compartment. Some were pretreated for 1 h with the test substances. After 24 h these were transfected with plasmid pEGFP-AhR by means of the FuGene 6 transfection reagent (Roche, Mannheim, Germany) according to the manufacturer's instructions. After a further 24 h the transfected cells were irradiated with 100 J/m^2 of UVB. After 40 min the cells were fixed for 10 min with 4% paraformaldehyde and washed with PBS. The slides were dried and covered with Vectashield mounting medium (Vector Laboratories, Burlingame, Calif., USA). The GFP-coupled AhR was visualized by means of a fluorescence microscope (Olympus, Hamburg, Germany) and photographed with a ColorView XS digital camera (Olympus).

Row | Compound | Degradation after 2 h [1] | Degradation after 4 h [1] | translocation of the AhR into the cell nucleus (AhR)
1 | COc1cc2c(cc1OC)C(C)(C)/C(=C\c1ccccc1)C2=O [Compound (Ia)] | 7% | 7% | 
2 | COc1cc(-c2cc(=O)c3ccccc3o2)ccc1[N+](=O)[O-] [3-methoxy-4-nitroflavone] |  |  | inhibited the translocation of the AhR into the cell nucleus
3 | COc1ccc(/C=C2/C(=O)c3ccccc3C2(C)C)cc1OC [(Ib)] | 4% | 15% | 
4 | CC1=C(/C=C/C(C)=C/C=C/C(C)=C/C(=O)O)C(C)(C)CCC1 [Vitamin A acid, reference compound] | 95% | 100% | 
5 | CCCCOc1cc2c(cc1C)C(=O)/C(=C/c1ccc(OC)cc1)C2(C)C [(Id)] | 7% | 11% | 
6 | Oc1ccc(C=Cc2cc(O)cc(O)c2)cc1 (mixture of isomers) [Resveratrol (E/Z mixture), 3,5,4′-trihydroxystilbene, reference compound] | 77% | 84% | 
